Assay results published in patent EP0284935A1, “5-Substituted quinolone- and naphthyridone carboxylic acid derivatives” (BAYER AG, priority 1987, dated 1988).
Converted amounts (≈) assume the structure as drawn.

Experiments:
Test in all cases: Agar dilution test, minimum inhibitory concentration
Assay type in all cases: cell-based
Staph. FK 422 = conditions: test strain Staph. FK 422; Isosensitest-Agar (Oxoid), inoculum ca. 10^4 germs per inoculation point; read-out: Minimale Hemmkonzentrationen
Klebsiella 8085 = conditions: test strain Klebsiella 8085; Isosensitest-Agar (Oxoid), inoculum ca. 10^4 germs per inoculation point; read-out: Minimale Hemmkonzentrationen
E.coli A261 = conditions: Escherichia coli; test strain E.coli A261; Isosensitest-Agar (Oxoid), inoculum ca. 10^4 germs per inoculation point; read-out: Minimale Hemmkonzentrationen
Providencia 12012 = conditions: test strain Providencia 12012; Isosensitest-Agar (Oxoid), inoculum ca. 10^4 germs per inoculation point; read-out: Minimale Hemmkonzentrationen
E.coli Neumann = conditions: Escherichia coli; test strain E.coli Neumann; Isosensitest-Agar (Oxoid), inoculum ca. 10^4 germs per inoculation point; read-out: Minimale Hemmkonzentrationen
Providencia 12052 = conditions: test strain Providencia 12052; Isosensitest-Agar (Oxoid), inoculum ca. 10^4 germs per inoculation point; read-out: Minimale Hemmkonzentrationen
Staph. 1756 = conditions: test strain Staph. 1756; Isosensitest-Agar (Oxoid), inoculum ca. 10^4 germs per inoculation point; read-out: Minimale Hemmkonzentrationen
Klebsiella 63 = conditions: test strain Klebsiella 63; Isosensitest-Agar (Oxoid), inoculum ca. 10^4 germs per inoculation point; read-out: Minimale Hemmkonzentrationen
Pseudomonas Walter = conditions: test strain Pseudomonas Walter; Isosensitest-Agar (Oxoid), inoculum ca. 10^4 germs per inoculation point; read-out: Minimale Hemmkonzentrationen
Serratia 16040 = conditions: test strain Serratia 16040; Isosensitest-Agar (Oxoid), inoculum ca. 10^4 germs per inoculation point; read-out: Minimale Hemmkonzentrationen
Pseudomonas Ellsworth = conditions: test strain Pseudomonas Ellsworth; Isosensitest-Agar (Oxoid), inoculum ca. 10^4 germs per inoculation point; read-out: Minimale Hemmkonzentrationen
Enteroc. 27101 = conditions: test strain Enteroc. 27101; Isosensitest-Agar (Oxoid), inoculum ca. 10^4 germs per inoculation point; read-out: Minimale Hemmkonzentrationen
Morg. morg. 11006 = conditions: test strain Morg. morg. 11006; Isosensitest-Agar (Oxoid), inoculum ca. 10^4 germs per inoculation point; read-out: Minimale Hemmkonzentrationen
Proteus mir. 8223 = conditions: test strain Proteus mir. 8223; Isosensitest-Agar (Oxoid), inoculum ca. 10^4 germs per inoculation point; read-out: Minimale Hemmkonzentrationen
Staph. 133 = conditions: test strain Staph. 133; Isosensitest-Agar (Oxoid), inoculum ca. 10^4 germs per inoculation point; read-out: Minimale Hemmkonzentrationen
Enteroc. 9790 = conditions: test strain Enteroc. 9790; Isosensitest-Agar (Oxoid), inoculum ca. 10^4 germs per inoculation point; read-out: Minimale Hemmkonzentrationen
Proteus vulg. 1017 = conditions: test strain Proteus vulg. 1017; Isosensitest-Agar (Oxoid), inoculum ca. 10^4 germs per inoculation point; read-out: Minimale Hemmkonzentrationen
E.coli 455/7 = conditions: Escherichia coli; test strain E.coli 455/7; Isosensitest-Agar (Oxoid), inoculum ca. 10^4 germs per inoculation point; read-out: Minimale Hemmkonzentrationen
Morg. morg. 932 = conditions: test strain Morg. morg. 932; Isosensitest-Agar (Oxoid), inoculum ca. 10^4 germs per inoculation point; read-out: Minimale Hemmkonzentrationen

MIC (Staph. FK 422): 0.03 µg/mL (≈ 0.0793 µM) | MIC (Klebsiella 8085): 0.03 µg/mL (≈ 0.0793 µM) | MIC (E.coli A261): 0.25 µg/mL (≈ 0.661 µM) | MIC (Providencia 12012): 0.06 µg/mL (≈ 0.159 µM) | MIC (E.coli Neumann): 0.03 µg/mL (≈ 0.0793 µM) | MIC (Providencia 12052): 1 µg/mL (≈ 2.64 µM) | MIC (Staph. 1756): 0.06 µg/mL (≈ 0.159 µM) | MIC (Klebsiella 63): 0.03 µg/mL (≈ 0.0793 µM) | MIC (Pseudomonas Walter): 0.5 µg/mL (≈ 1.32 µM) | MIC (Serratia 16040): 4 µg/mL (≈ 10.6 µM) | MIC (Pseudomonas Ellsworth): 0.06 µg/mL (≈ 0.159 µM) | MIC (Enteroc. 27101): 0.25 µg/mL (≈ 0.661 µM) | MIC (Morg. morg. 11006): 0.06 µg/mL (≈ 0.159 µM) | MIC (Proteus mir. 8223): 0.25 µg/mL (≈ 0.661 µM) | MIC (Staph. 133): 0.06 µg/mL (≈ 0.159 µM) | MIC (Enteroc. 9790): 0.25 µg/mL (≈ 0.661 µM) | MIC (Proteus vulg. 1017): 0.06 µg/mL (≈ 0.159 µM) | MIC (E.coli 455/7): 1 µg/mL (≈ 2.64 µM) | MIC (Morg. morg. 932): 0.03 µg/mL (≈ 0.0793 µM)
Structure (SMILES): CN1CCN(c2c(F)c(N)c3c(=O)c(C(=O)O)cn(C4CC4)c3c2F)CC1 [Beispiel 19, 5-Amino-1-cyclopropyl-6,8-difluor-1,4-dihydro-7-(4-methyl-1-piperanyl)-4-oxo-3-chinolincarbonsäure]
